In publication PMC4184702 (Pharmacology Research & Perspectives, 2014):

How the values were obtained:
V1A = target: T1, V1A (Homo sapiens, UniProt P37288); experiment: PDSP primary binding, V1A; settings: n = 4, read-out: Inhibition (primary binding competition efficacy), V1A
T1 construct: purchased NIMH Psychoactive Drug Screening Program (PDSP)
Experimental: (§1) For experimental details, please refer to the Psychoactive Drug Screening Program (PDSP) web site http://pdsp.med.unc.edu/.
(§2) ^a The default concentration for primary binding experiments is 10 µM (n = 4). ^b Negative inhibition represents a stimulation of binding. ^c BZPR: Benzodiazepine Receptors (rat brain site). ^d DOR: Delta Opioid Receptor; KOR: Kappa Opioid Receptor; MOR: Mu Opioid Receptor. ^e DAT: Dopamine Transporter; NET: Norepinephrine Transporter; SERT: Serotonin Transporter. ^f NMDA: N-methyl-D-aspartate receptor.

5-HT2A = target: T2, 5-HT2A (Homo sapiens, UniProt P28223); experiment: PDSP primary binding, 5-HT2A; settings: n = 4, read-out: Inhibition (primary binding competition efficacy), 5-HT2A
T2 construct: purchased NIMH Psychoactive Drug Screening Program (PDSP)
Experimental: as §1, §2

α7* nAChR = settings: ref Yu et al. [2012], cited from earlier work
[1] = parameters: method as in Yuan et al. [2013]; settings: ref Yuan et al. [2013]; cited from earlier work
PBR = target: T3, PBR (Rattus norvegicus, UniProt P16257); experiment: PDSP primary binding, PBR; settings: n = 4, read-out: Inhibition (primary binding competition efficacy), PBR
T3 construct: purchased NIMH Psychoactive Drug Screening Program (PDSP)
Experimental: as §1, §2

M4 muscarinic receptor = target: T4, M4 muscarinic receptor (Homo sapiens, UniProt P08173); experiment: PDSP primary binding, M4; settings: n = 4, read-out: Inhibition (primary binding competition efficacy), M4
T4 construct: purchased NIMH Psychoactive Drug Screening Program (PDSP)
Experimental: as §1, §2

5-HT7 = target: T5, 5-HT7 (Homo sapiens, UniProt P34969); experiment: PDSP primary binding, 5-HT7; settings: n = 4, read-out: Inhibition (primary binding competition efficacy), 5-HT7
T5 construct: purchased NIMH Psychoactive Drug Screening Program (PDSP)
Experimental: as §1, §2

Male C57 BL6/J mice = tested on: Male C57 BL6/J mice
Experimental: Male C57 BL6/J (from Jackson Laboratories) mice were used for these studies. Upon receipt at 6 weeks of age, mice were single-housed in OptiMICE ventilated cages and acclimated to the colony room for 1 week prior to beginning of the dosing regimen at 7 weeks of age.
Mice were tested in NSF on day 29 of treatment. Eighteen hours prior to behavioral testing, all food was removed from the home cage. The NSF test was carried out during a 15-min period. The test chamber consists of a rectangular (14″ × 20″ × 6″) plastic box. The chamber floor is covered with bedding (∼0.5″). At the time of testing, animals were placed in the left front corner of the chamber and two food pellets (regular chow) were placed on a laminated white paper circle (13 cm in diameter) positioned in the center of the test chamber. The latency to eat is defined by the animal holding the food with one or both paws and taking a bite of the pellet and staying in the center eating for at least 5 sec. The mice were videotaped and tapes were scored by two trained observers blind to the treatments. […] Upon completion of NSF, about 50 60 min after the pretreatment, mice were decapitated and all animals from all treatment groups except from the imipramine group were processed for collection of trunk blood and whole-brain tissue. […]

M3 muscarinic receptor = target: T6, M3 muscarinic receptor (Homo sapiens, UniProt P20309); experiment: PDSP primary binding, M3; settings: n = 4, read-out: Inhibition (primary binding competition efficacy), M3
T6 construct: purchased NIMH Psychoactive Drug Screening Program (PDSP)
Experimental: as §1, §2

α2A adrenergic receptor = target: T7, α2A adrenergic receptor (Homo sapiens, UniProt P08913); experiment: PDSP primary binding, α2A; settings: n = 4, read-out: Inhibition (primary binding competition efficacy), α2A
T7 construct: purchased NIMH Psychoactive Drug Screening Program (PDSP)
Experimental: as §1, §2

strain TA98 = experiment: Ames test, strain TA98; type: cell-based
CB2 = target: T8, CB2 (Homo sapiens, UniProt P34972); experiment: PDSP primary binding, CB2; settings: n = 4, read-out: Inhibition (primary binding competition efficacy), CB2
T8 construct: purchased NIMH Psychoactive Drug Screening Program (PDSP)
Experimental: as §1, §2

5-HT5A = target: T9, 5-HT5A (Homo sapiens, UniProt P47898); experiment: PDSP primary binding, 5-HT5A; settings: n = 4, read-out: Inhibition (primary binding competition efficacy), 5-HT5A
T9 construct: purchased NIMH Psychoactive Drug Screening Program (PDSP)
Experimental: as §1, §2

strain TA1535 = experiment: Ames test, strain TA1535; type: cell-based
5-HT1D = target: T10, 5-HT1D (Homo sapiens, UniProt P28221); experiment: PDSP primary binding, 5-HT1D; settings: n = 4, read-out: Inhibition (primary binding competition efficacy), 5-HT1D
T10 construct: purchased NIMH Psychoactive Drug Screening Program (PDSP)
Experimental: as §1, §2

5-HT1E = target: T11, 5-HT1E (Homo sapiens, UniProt P28566); experiment: PDSP primary binding, 5-HT1E; settings: n = 4, read-out: Inhibition (primary binding competition efficacy), 5-HT1E
T11 construct: purchased NIMH Psychoactive Drug Screening Program (PDSP)
Experimental: as §1, §2

[2] = Metabolic stability, cryopreserved hepatocytes, human; type: in vitro ADME; settings: 1.0E-06 M, 2 h
H2 histamine receptor = target: T12, H2 histamine receptor (Homo sapiens, UniProt P25021); experiment: PDSP primary binding, H2; settings: n = 4, read-out: Inhibition (primary binding competition efficacy), H2
T12 construct: purchased NIMH Psychoactive Drug Screening Program (PDSP)
Experimental: as §1, §2

[3] = tested on: NMDA: N-methyl-D-aspartate receptor; experiment: PDSP primary binding, NMDA; settings: 10 µM, n = 4
Experimental: as §1, §2

[4] = target: T13, DOR: Delta Opioid Receptor (Homo sapiens, UniProt P41143); experiment: PDSP primary binding, DOR; settings: n = 4, read-out: Inhibition (primary binding competition efficacy), DOR
T13 construct: purchased NIMH Psychoactive Drug Screening Program (PDSP)
Experimental: as §1, §2

5-HT4 = target: T14, 5-HT4 (Homo sapiens, UniProt Q13639); experiment: PDSP primary binding, 5-HT4; settings: n = 4, read-out: Inhibition (primary binding competition efficacy), 5-HT4
T14 construct: purchased NIMH Psychoactive Drug Screening Program (PDSP)
Experimental: as §1, §2

[5] = with or without S9, 5, 10, 50, or 100 μmol/L

T8 sequence (P34972 whole entry): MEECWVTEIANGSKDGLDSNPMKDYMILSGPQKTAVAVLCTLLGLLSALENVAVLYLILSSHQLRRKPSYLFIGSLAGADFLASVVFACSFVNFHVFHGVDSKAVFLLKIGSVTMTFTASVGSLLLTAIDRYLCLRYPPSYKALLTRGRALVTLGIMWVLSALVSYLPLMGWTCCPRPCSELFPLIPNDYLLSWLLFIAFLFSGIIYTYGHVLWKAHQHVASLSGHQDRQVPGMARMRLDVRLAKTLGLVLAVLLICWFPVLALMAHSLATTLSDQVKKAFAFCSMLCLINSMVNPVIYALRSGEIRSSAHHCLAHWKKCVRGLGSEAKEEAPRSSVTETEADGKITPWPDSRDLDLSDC
T3 sequence (P16257 whole entry): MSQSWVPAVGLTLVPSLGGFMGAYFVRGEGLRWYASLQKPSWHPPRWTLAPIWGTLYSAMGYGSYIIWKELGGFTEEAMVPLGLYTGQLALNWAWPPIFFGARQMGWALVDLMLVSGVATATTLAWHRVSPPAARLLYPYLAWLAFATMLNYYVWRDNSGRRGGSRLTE
T6 sequence (P20309 whole entry): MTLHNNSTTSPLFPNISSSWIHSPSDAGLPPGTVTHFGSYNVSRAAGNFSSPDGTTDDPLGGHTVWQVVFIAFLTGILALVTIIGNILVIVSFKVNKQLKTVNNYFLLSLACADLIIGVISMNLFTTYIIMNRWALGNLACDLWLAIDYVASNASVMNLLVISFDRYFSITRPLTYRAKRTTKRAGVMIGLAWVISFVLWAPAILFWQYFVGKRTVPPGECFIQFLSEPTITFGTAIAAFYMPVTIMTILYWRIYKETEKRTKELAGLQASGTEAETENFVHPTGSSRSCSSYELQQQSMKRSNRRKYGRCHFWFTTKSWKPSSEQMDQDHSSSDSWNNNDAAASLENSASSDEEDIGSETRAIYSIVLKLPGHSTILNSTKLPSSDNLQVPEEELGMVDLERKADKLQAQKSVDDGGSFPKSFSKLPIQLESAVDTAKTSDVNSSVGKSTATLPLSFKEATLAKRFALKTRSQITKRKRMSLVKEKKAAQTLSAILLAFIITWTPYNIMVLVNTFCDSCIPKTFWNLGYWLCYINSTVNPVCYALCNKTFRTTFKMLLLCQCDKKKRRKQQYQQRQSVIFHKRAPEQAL
T5 sequence (P34969 whole entry): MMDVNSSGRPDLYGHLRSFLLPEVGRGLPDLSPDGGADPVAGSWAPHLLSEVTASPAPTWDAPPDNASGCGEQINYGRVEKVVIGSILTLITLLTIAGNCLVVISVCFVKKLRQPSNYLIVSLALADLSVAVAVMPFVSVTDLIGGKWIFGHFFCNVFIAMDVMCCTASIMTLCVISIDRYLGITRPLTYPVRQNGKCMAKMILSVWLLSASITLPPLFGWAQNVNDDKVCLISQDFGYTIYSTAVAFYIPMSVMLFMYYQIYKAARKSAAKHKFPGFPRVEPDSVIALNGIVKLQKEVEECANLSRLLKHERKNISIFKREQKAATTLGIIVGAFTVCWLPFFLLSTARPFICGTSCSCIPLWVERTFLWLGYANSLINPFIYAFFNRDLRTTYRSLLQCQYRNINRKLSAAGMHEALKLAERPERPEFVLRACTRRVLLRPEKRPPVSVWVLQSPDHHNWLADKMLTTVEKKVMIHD
T13 sequence (P41143 whole entry): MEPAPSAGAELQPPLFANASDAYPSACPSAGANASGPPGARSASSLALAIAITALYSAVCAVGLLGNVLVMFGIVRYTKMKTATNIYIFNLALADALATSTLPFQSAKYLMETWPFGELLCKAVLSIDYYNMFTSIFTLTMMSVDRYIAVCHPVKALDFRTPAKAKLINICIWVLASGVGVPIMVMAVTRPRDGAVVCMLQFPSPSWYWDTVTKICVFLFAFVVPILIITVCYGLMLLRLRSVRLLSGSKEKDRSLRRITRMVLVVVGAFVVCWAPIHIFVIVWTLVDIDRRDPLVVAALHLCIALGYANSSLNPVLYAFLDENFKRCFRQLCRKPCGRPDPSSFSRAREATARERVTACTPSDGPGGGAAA
T1 sequence (P37288 whole entry): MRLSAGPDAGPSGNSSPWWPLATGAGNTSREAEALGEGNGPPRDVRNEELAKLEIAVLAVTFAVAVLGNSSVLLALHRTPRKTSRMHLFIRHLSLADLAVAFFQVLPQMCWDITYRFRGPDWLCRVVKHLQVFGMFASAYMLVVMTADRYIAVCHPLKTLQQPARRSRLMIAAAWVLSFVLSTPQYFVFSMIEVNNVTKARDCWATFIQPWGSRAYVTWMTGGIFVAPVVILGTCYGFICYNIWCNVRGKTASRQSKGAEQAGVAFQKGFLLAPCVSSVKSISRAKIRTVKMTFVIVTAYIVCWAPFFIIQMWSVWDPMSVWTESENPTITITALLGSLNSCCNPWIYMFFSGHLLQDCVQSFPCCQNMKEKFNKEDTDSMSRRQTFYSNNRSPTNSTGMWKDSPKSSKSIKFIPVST
T4 sequence (P08173 whole entry): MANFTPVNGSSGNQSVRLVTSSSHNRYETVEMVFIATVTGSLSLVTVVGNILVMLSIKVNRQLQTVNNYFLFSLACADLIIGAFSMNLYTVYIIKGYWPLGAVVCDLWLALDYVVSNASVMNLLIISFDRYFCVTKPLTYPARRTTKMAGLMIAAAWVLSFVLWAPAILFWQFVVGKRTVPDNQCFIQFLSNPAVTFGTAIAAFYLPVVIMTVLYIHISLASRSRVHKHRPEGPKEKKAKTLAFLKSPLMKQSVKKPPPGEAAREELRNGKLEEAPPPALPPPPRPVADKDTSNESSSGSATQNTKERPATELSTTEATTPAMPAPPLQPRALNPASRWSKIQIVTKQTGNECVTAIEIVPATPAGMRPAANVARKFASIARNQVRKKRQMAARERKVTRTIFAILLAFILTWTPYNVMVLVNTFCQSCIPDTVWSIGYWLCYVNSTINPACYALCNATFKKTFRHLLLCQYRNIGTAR
T14 sequence (Q13639 whole entry): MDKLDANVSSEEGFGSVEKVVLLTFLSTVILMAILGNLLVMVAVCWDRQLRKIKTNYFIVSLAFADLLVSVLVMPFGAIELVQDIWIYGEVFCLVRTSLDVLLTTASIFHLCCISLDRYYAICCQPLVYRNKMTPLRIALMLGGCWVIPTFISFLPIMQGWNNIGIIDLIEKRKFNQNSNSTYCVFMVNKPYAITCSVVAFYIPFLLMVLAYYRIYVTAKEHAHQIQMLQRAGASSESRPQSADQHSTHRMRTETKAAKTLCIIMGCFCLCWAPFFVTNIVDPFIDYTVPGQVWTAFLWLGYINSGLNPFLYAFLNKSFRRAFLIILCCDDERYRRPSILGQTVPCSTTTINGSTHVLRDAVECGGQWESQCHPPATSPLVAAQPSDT
T7 sequence (P08913 whole entry): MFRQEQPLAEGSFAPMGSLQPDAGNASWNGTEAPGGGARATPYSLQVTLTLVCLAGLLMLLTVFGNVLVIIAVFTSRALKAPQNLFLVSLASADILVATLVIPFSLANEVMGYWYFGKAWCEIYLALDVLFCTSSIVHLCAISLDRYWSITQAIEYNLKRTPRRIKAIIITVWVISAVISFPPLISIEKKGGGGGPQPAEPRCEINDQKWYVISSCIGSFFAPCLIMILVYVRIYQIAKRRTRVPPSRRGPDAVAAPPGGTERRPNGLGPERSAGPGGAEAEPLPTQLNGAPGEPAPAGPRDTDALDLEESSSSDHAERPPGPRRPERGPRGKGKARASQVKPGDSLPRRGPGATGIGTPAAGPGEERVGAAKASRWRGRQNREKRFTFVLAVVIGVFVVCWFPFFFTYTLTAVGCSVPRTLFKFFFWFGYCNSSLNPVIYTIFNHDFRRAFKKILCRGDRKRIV
T10 sequence (P28221 whole entry): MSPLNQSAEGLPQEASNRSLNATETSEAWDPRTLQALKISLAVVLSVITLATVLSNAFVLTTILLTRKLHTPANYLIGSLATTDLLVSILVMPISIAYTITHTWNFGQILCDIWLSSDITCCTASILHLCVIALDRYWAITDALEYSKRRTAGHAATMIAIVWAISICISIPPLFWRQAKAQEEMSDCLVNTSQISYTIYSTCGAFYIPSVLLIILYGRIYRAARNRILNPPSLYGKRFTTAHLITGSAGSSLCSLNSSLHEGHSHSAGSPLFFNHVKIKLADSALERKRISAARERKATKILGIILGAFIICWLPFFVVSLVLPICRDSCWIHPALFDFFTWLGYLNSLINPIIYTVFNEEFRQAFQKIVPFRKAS
T12 sequence (P25021 whole entry): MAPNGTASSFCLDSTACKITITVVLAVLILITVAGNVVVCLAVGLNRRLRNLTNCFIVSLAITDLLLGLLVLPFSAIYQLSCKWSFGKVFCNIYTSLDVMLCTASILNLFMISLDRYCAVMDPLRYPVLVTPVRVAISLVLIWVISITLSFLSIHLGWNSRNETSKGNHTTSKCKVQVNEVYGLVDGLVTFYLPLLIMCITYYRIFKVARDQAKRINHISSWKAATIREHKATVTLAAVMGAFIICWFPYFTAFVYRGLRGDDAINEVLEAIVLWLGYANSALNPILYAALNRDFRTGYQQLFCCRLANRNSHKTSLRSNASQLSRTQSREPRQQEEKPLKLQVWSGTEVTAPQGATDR
T2 sequence (P28223 whole entry): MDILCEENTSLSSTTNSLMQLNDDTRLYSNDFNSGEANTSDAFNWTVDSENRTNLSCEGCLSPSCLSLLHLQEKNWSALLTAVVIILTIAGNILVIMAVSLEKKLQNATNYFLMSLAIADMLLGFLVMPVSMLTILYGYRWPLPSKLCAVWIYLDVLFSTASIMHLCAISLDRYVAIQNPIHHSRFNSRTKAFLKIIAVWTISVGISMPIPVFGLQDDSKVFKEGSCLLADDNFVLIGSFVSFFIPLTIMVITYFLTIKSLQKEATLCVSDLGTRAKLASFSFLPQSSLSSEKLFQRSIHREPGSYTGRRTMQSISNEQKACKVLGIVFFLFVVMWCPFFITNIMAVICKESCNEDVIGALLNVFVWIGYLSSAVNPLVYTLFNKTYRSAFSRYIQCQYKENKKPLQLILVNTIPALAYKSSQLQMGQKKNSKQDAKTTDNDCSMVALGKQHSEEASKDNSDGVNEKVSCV

## OCCc1cc(-c2cncc(OC[C@@H]3CCN3)c2)on1 [LF-3-88, 2-[5-[5-(2(S)-azetidinylmethoxyl)-3-pyridyl]-3-isoxazolyl]ethanol]
V1A
  inhibition at 10 µM: 24.7%
5-HT2A
  inhibition at 10 µM: 34.1%
α7* nAChR; Figure 1
  Ki: > 10 µM
α7* nAChR; rat forebrain, class symbol
  Ki α7*: NA (NA: not active, defined as < 50% binding in the primary assay at 10 μmol/L)
[1]
  absorption and blood-brain barrier crossing in vivo: absorbed rapidly and crossed the blood–brain barrier
PBR
  inhibition at 10 µM: -1.5%
M4 muscarinic receptor
  inhibition at 10 µM: -3.6%
5-HT7
  inhibition at 10 µM: 1.1%
Male C57 BL6/J mice; 4-week administration
  treatment effect on body weight: did not find a significant treatment effect
Male C57 BL6/J mice; 28 days oral administration, 5 and 10 mg/kg
  behavioral changes / tolerability in NSF paradigm: No obvious behavioral changes
M3 muscarinic receptor
  inhibition at 10 µM: 0.9%
α2A adrenergic receptor
  inhibition at 10 µM: 23.1%
Strain TA98; strain TA98 + S9, 1.0E-04 M
  Ames test Result: Negative
Strain TA98; strain TA98 + S9, 1.0E-05 M
  Ames test Result: Negative
Strain TA98; strain TA98 + S9, 5.0E-05 M
  Ames test Result: Negative
Strain TA98; strain TA98 + S9, 5.0E-06 M
  Ames test Result: Negative
Strain TA98; strain TA98 – S9, 1.0E-04 M
  Ames test Result: Negative
Strain TA98; strain TA98 – S9, 1.0E-05 M
  Ames test Result: Negative
Strain TA98; strain TA98 – S9, 5.0E-05 M
  Ames test Result: Negative
Strain TA98; strain TA98 – S9, 5.0E-06 M
  Ames test Result: Negative
Strain TA98; [5]
  mutagenic potential (Ames), TA98: negative
CB2
  inhibition at 10 µM: -7.3%
5-HT5A
  inhibition at 10 µM: 13.2%
Strain TA1535; strain TA1535 + S9, 1.0E-04 M
  Ames test Result: Negative
Strain TA1535; strain TA1535 + S9, 1.0E-05 M
  Ames test Result: Negative
Strain TA1535; strain TA1535 + S9, 5.0E-05 M
  Ames test Result: Negative
Strain TA1535; strain TA1535 + S9, 5.0E-06 M
  Ames test Result: Negative
Strain TA1535; strain TA1535 – S9, 1.0E-04 M
  Ames test Result: Negative
Strain TA1535; strain TA1535 – S9, 1.0E-05 M
  Ames test Result: Negative
Strain TA1535; strain TA1535 – S9, 5.0E-05 M
  Ames test Result: Negative
Strain TA1535; strain TA1535 – S9, 5.0E-06 M
  Ames test Result: Negative
Strain TA1535; [5]
  mutagenic potential (Ames), TA1535: negative
5-HT1D
  inhibition at 10 µM: -14.9%
5-HT1E
  inhibition at 10 µM: -3%
[2]
  Remaining (metabolic stability): 92%
H2 histamine receptor
  inhibition at 10 µM: 39.5%
[3]
  Inhibition (primary binding competition efficacy), NMDA: -4.7%
[4]
  inhibition at 10 µM: 5.9%
5-HT4
  inhibition at 10 µM: 3.7%
